The source of these data is PubChem BioAssay (NCI).

Among the test systems are HS 578T breast; HCT-116 colon; MOLT-4 leukemia; SNB-75 CNS; SF-295 CNS; SN12C renal; A498 renal; NCI/ADR-RES ovarian; NCI-H226 lung; SK-OV-3 ovarian.
Holding throughout (experiment): NCI tumour cell line growth inhibition, 48 h

Structures are written as SMILES. Values joined by “and” are separate entries in the source; they are usually repeats but may differ in a detail not shown here. Identical values can stand only once.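 Each compound was tested at five concentrations against cells in 96-well plates for 48 hours. At the GI50, growth is halved. TGI: total growth inhibition.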

For the compound `Nc1nc(N)c2nc(CNc3ccc(C(=O)NC(CCC(=O)O)C(=O)O)cc3)cnc2n1` (configuration not stated), the GI50 is greater than 100 µM in the test with HS 578T breast; less than 0.01 µM with HCT-116 colon; 0.0375 µM and < 0.0131 µM with MOLT-4 leukemia; 0.0327 µM and < 0.0134 µM in the test with SF-295 CNS; less than 0.01 µM in the test with SN12C renal; 0.062 µM and 0.0488 µM in the test on A498 renal. For the same compound, the GI50 is less than 0.01 µM with NCI/ADR-RES ovarian; 0.0755 µM and < 0.01 µM with SK-OV-3 ovarian. For the same compound, the TGI with HS 578T breast, in the test with HCT-116 colon, in the test on MOLT-4 leukemia, with SNB-75 CNS, in the test with SF-295 CNS and with SN12C renal was greater than 100 µM each time. The TGI in the test on A498 renal, with NCI/ADR-RES ovarian, in the test on NCI-H226 lung and in the test with SK-OV-3 ovarian was greater than 100 µM in each case.
For the compound `N/C(=N\O)c1cn(C2OC(CO)C(O)C2O)c2ncnc(N)c12` (configuration not stated), the GI50 in the test with HS 578T breast was 0.263 µM; in the test with HCT-116 colon it was 0.0633 µM; in the test with MOLT-4 leukemia, 0.277 µM; with SNB-75 CNS, 0.18 µM; in the test with SF-295 CNS, 0.275 µM; with SN12C renal, 0.152 µM. The GI50 with A498 renal was 0.14 µM; in the test with NCI/ADR-RES ovarian, 0.262 µM; in the test on NCI-H226 lung, 0.446 µM; in the test on SK-OV-3 ovarian, 0.0884 µM. In addition, the TGI in the test with HS 578T breast is 3.62 µM; in the test on HCT-116 colon, greater than 100 µM; in the test with MOLT-4 leukemia it was 1.64 µM; in the test on SNB-75 CNS, 6.17 µM; in the test with SF-295 CNS, 7.3 µM; in the test on SN12C renal it was greater than 36.1 µM. Further, the TGI came to 0.555 µM in the test with A498 renal, 49.6 µM with NCI-H226 lung and 1.76 µM in the test on SK-OV-3 ovarian.
Turning to `Nc1nc(-c2ccccn2)c(-c2ccc3ncccc3n2)s1`, the GI50 in the test with HS 578T breast, in the test with HCT-116 colon, in the test on MOLT-4 leukemia, in the test on SNB-75 CNS, in the test on SF-295 CNS and with SN12C renal was greater than 25 µM in each case. Further, the GI50 in the test on A498 renal, in the test on NCI/ADR-RES ovarian, with NCI-H226 lung and in the test on SK-OV-3 ovarian was greater than 25 µM each time. The TGI in the test with HS 578T breast, in the test on HCT-116 colon, with MOLT-4 leukemia, in the test on SNB-75 CNS, with SF-295 CNS and in the test on SN12C renal was greater than 25 µM each time. The TGI with A498 renal, in the test with NCI/ADR-RES ovarian, in the test with NCI-H226 lung and in the test on SK-OV-3 ovarian was greater than 25 µM throughout.
`COc1cc2nc(NC3CCC3)nc(NC3CCN(C(C)C)CC3)c2cc1OC`: the GI50 in the test with HS 578T breast was 2.08 µM; with HCT-116 colon, 1.78 µM; in the test on MOLT-4 leukemia, 2.83 µM; in the test with SNB-75 CNS it was 1.41 µM; in the test on SF-295 CNS, 1.87 µM; in the test with SN12C renal, 3.92 µM. Also, the GI50 in the test with A498 renal is 1.24 µM; in the test with NCI/ADR-RES ovarian it was 15.6 µM; in the test on NCI-H226 lung, 6 µM; in the test on SK-OV-3 ovarian it was 8 µM. For the same compound, the TGI in the test on HS 578T breast amounted to 5.45 µM; in the test on HCT-116 colon it was 4.39 µM; in the test on MOLT-4 leukemia it was 8.48 µM; with SNB-75 CNS, 4.4 µM; in the test with SF-295 CNS, 3.67 µM; with SN12C renal it was 16.1 µM. Also, the TGI with A498 renal is 7.05 µM; in the test on NCI/ADR-RES ovarian, 65 µM; with NCI-H226 lung, 21.8 µM; in the test on SK-OV-3 ovarian, 33.7 µM.
As to `CC(=O)Nc1ccc(S(=O)(=O)N2C(=O)CCC2C(=O)Nc2ccccc2)cc1` (configuration not stated), the GI50 in the test on HS 578T breast was 2.71 µM; in the test with HCT-116 colon it was 0.389 µM; with MOLT-4 leukemia, 1.96 µM; in the test on SNB-75 CNS it was 1.63 µM; in the test on SF-295 CNS, 0.33 µM; with SN12C renal, 2.68 µM. Further, the GI50 is 0.303 µM with A498 renal, 1.61 µM in the test with NCI/ADR-RES ovarian, 3.16 µM in the test on NCI-H226 lung and 2.87 µM with SK-OV-3 ovarian. In addition, the TGI in the test with HS 578T breast is 36.2 µM; in the test with HCT-116 colon, 20 µM; in the test with MOLT-4 leukemia, 14.5 µM; with SNB-75 CNS, 6.86 µM; in the test with SF-295 CNS, 3.41 µM; in the test on SN12C renal, 22.6 µM. For the same compound, the TGI in the test on A498 renal amounted to 8.77 µM; with NCI/ADR-RES ovarian it was 29.1 µM; in the test with NCI-H226 lung, 20.9 µM; in the test on SK-OV-3 ovarian it was 18.8 µM.
